pIC50: −log10 of the molar value. Structures can show the parent of a compound that is named as a salt.
What was measured:
MCF-7 = experiment: MTT assay in MCF-7 breast tumor cells; type: cell-based; conditions: 10 point dose response
MDA-MB231 = experiment: MTT assay in MDA-MB-231 breast tumor cells; type: cell-based; conditions: 10 point dose response
DU-145 = experiment: MTT assay in DU-145 prostate tumor cells; type: cell-based; conditions: 10 point dose response
Ishikawa = experiment: MTT assay in Ishikawa endometrial adenocarcinoma cells; type: cell-based; conditions: Table 6, 48 h, 10 point dose response
K562 = experiment: MTT cytotoxicity assay in K562 cells; type: cell-based; conditions: Homo sapiens, K562, 48 h, Table 1; MTT assay after 48 h treatment
HL60 = experiment: MTT cytotoxicity assay in HL-60 cells; type: cell-based; conditions: Homo sapiens, HL-60, 48 h, Table 1; MTT assay after 48 h treatment
NIH3T3 = experiment: MTT cytotoxicity assay in NIH3T3 fibroblasts; type: cell-based, mouse; conditions: Mus musculus, NIH3T3, 48 h, Table 1; MTT assay after 48 h treatment
Procedure: To consider a molecule as a candidate compound in cancer drug therapy, the test compound must have specific cytotoxicity towards the cancer cells without affecting normal cell growth. Therefore, all active compounds were assessed for toxicity in non-cancer cell-lines: mouse fibroblast cell line (NIH3T3) and monkey kidney epithelial cells (Vero). […] Therefore, based on safety index ([…]), 5d [Centans; based on IUPAC name prefixed with Central Drug Research Institute's signature (Cent)] was selected as a lead compound.

[1] = Homo sapiens, MCF7, Table 6, 48 h
[2] = Homo sapiens, MDA-MB-231, Table 6, 48 h
[3] = Homo sapiens, DU-145, Table 6, 48 h

Compound | melting point | pIC50 (K562) | pIC50 (HL60) | pIC50 (NIH3T3) | pIC50 (MCF-7; [1]) | pIC50 (MDA-MB231; [2]) | pIC50 (DU-145; [3]) | pIC50 (Ishikawa; Homo sapiens, Ishikawa) | also measured
4-hydroxy-tamoxifen [OH-TAM, reference compound] |  |  |  |  |  |  |  |  | pIC50 (MCF-7; Table 6, 48 h): 5.06; pIC50 (MDA-MB231; Table 6, 48 h): 5.10; pIC50 (DU-145; Table 6, 48 h): 5.00; pIC50 (Ishikawa): 4.70
CSc1ccc(/C(=N/OCCN2CCCCC2)c2cccc3ccccc23)cc1 (as salt: oxalate) [Compound 5a, (4-(methylthio)phenyl)(naphthalen-1-yl)methanone O-2-(piperidin-1-yl)ethyl oxime oxalate] | 155 °C |  |  |  |  |  |  |  | 
CSc1ccc(/C(=N/OCCN2CCCC2)c2cccc3ccccc23)cc1 (as salt: oxalate) [Compound 5b, (4-(methylthio)phenyl)(naphthalen-1-yl)methanone O-2-(pyrrolidin-1-yl)ethyl oxime oxalate] | 153 °C |  |  |  |  |  |  |  | 
CSc1ccc(/C(=N/OCCN(C)C)c2cccc3ccccc23)cc1 (as salt: oxalate) [Compound 5c, (4-(methylthio)phenyl)(naphthalen-1-yl)methanone O-2-(dimethylamino)ethyl oxime oxalate] | 105 °C |  |  |  |  |  |  |  | 
CSc1ccc(/C(=N/OC(C)CN(C)C)c2cccc3ccccc23)cc1 (centres unmarked) (as salt: oxalate) [Compound 5g, (4-(methylthio)phenyl)(naphthalen-1-yl)methanone O-1-(dimethylamino)propan-2-yl oxime oxalate] | 101 °C |  |  |  |  |  |  |  | 
CSc1ccc(/C(=N/OCCN2CCCCCC2)c2cccc3ccccc23)cc1 (as salt: oxalate) [Compound 5h, (4-(methylthio)phenyl)(naphthalen-1-yl)methanone O-2-(azepan-1-yl)ethyl oxime oxalate] | 145 °C |  |  |  |  |  |  |  | 
CSc1ccc(/C(=N/OCCCN(C)C)c2cccc3ccccc23)cc1 (as salt: oxalate) [Compound 5m, (4-(methylthio)phenyl)(naphthalen-1-yl)methanone O-3-(dimethylamino)propyl oxime oxalate] | 110 °C |  |  |  |  |  |  |  | 
COc1ccc(/C(=N/OCCN2CCCCC2)c2cccc3ccccc23)cc1 (as salt: oxalate) [Compound 6a, (4-methoxyphenyl)(naphthalen-1-yl)methanone O-2-(piperidin-1-yl)ethyl oxime oxalate] | 171 °C |  |  |  |  |  |  |  | 
COc1ccc(/C(=N/OCCN2CCCC2)c2cccc3ccccc23)cc1 (as salt: oxalate) [Compound 6b, (4-methoxyphenyl)(naphthalen-1-yl)methanone O-2-(pyrrolidin-1-yl)ethyl oxime oxalate] | 158 °C |  |  |  |  |  |  |  | 
COc1ccc(/C(=N/OCCN(C)C)c2cccc3ccccc23)cc1 (as salt: oxalate) [Compound 6c, (4-methoxyphenyl)(naphthalen-1-yl)methanone O-2-(dimethylamino)ethyl oxime oxalate] | 141 °C |  |  |  |  |  |  |  | 
CCN(CC)CCO/N=C(/c1ccc(OC)cc1)c1cccc2ccccc12 (as salt: oxalate) [Compound 6d, (4-methoxyphenyl)(naphthalen-1-yl)methanone O-2-(diethylamino)ethyl oxime oxalate] | 137 °C |  |  |  |  |  |  |  | 
COc1ccc(/C(=N/OCCN(C(C)C)C(C)C)c2cccc3ccccc23)cc1 (as salt: oxalate) [Compound 6e, (4-methoxyphenyl)(naphthalen-1-yl)methanone O-2-(diisopropylamino)ethyl oxime oxalate] | 130 °C |  |  |  |  |  |  |  | 
COc1ccc(/C(=N/OC(C)CN(C)C)c2cccc3ccccc23)cc1 (centres unmarked) (as salt: oxalate) [Compound 6f, (4-methoxyphenyl)(naphthalen-1-yl)methanone O-1-(dimethylamino)propan-2-yl oxime oxalate] | 105 °C |  |  |  |  |  |  |  | 
COc1ccc(/C(=N/OCCN2CCCCCC2)c2cccc3ccccc23)cc1 (as salt: oxalate) [Compound 6g, (4-methoxyphenyl)(naphthalen-1-yl)methanone O-2-(azepan-1-yl)ethyl oxime oxalate] | 122 °C |  |  |  |  |  |  |  | 
COc1ccc(/C(=N/OCCCN(C)C)c2cccc3ccccc23)cc1 (as salt: oxalate) [Compound 6i, (4-methoxyphenyl)(naphthalen-1-yl)methanone O-3-(dimethylamino)propyl oxime oxalate] | 155 °C |  |  |  |  |  |  |  | 
CSc1ccc(/C(=N/OCCCN2CCCCC2)c2cccc3ccccc23)cc1 (as salt: oxalate) [Compound 7a, (4-(methylthio)phenyl)(naphthalen-1-yl)methanone O-3-(piperidin-1-yl)propyl oxime oxalate] | 137 °C |  |  |  |  |  |  |  | 
CSc1ccc(/C(=N/OCCCN2CCC(C)CC2)c2cccc3ccccc23)cc1 (as salt: oxalate) [Compound 7c, (4-(methylthio)phenyl)(naphthalen-1-yl)methanone O-3-(4-methylpiperidin-1-yl)propyl oxime oxalate] | 145 °C |  |  |  |  |  |  |  | 
COc1ccc(/C(=N/O)c2cccc3ccccc23)cc1 [Compound 4b, (4-methoxyphenyl)(naphthalen-1-yl)methanone oxime] | 132 °C | < 4.30 | < 4.30 | < 4.30 |  |  |  |  | 
CSc1ccc(/C(=N/OCCN2CCCC2)c2cccc3ccccc23)cc1 [Compound 5b, (4-(methylthio)phenyl)(naphthalen-1-yl)methanone O-2-(pyrrolidin-1-yl)ethyl oxime oxalate] |  | 4.60 | 4.72 | 4.70 | 5.18 | 5.30 | 5.02 | 5.22 | 
CSc1ccc(/C(=N/OCCN(C)C)c2cccc3ccccc23)cc1 [Compound 5c, (4-(methylthio)phenyl)(naphthalen-1-yl)methanone O-2-(dimethylamino)ethyl oxime oxalate] |  | < 4.30 | < 4.30 | < 4.30 | 4.85 | 4.89 | 4.82 | 5.05 | 
CSc1ccc(/C(=N/OCCN2CCOCC2)c2cccc3ccccc23)cc1 [Compound 5f, (4-(methylthio)phenyl)(naphthalen-1-yl)methanone O-2-morpholinoethyl oxime] |  | < 4.60 | < 4.30 | 4.59 | < 4.30 | < 4.30 | < 4.30 | < 4.30 | 
COc1ccc(/C(=N/OCCN2CCCCC2)c2cccc3ccccc23)cc1 [Compound 6a, (4-methoxyphenyl)(naphthalen-1-yl)methanone O-2-(piperidin-1-yl)ethyl oxime oxalate] |  | < 4.30 | < 4.30 | < 4.30 | 4.74 | < 4.30 | < 4.30 | < 4.30 | 
COc1ccc(/C(=N/OCCN2CCCC2)c2cccc3ccccc23)cc1 [Compound 6b, (4-methoxyphenyl)(naphthalen-1-yl)methanone O-2-(pyrrolidin-1-yl)ethyl oxime oxalate] |  | < 4.30 | < 4.30 | < 4.30 | 4.60 | < 4.30 | < 4.30 | < 4.30 | 
COc1ccc(/C(=N/OCCN(C)C)c2cccc3ccccc23)cc1 [Compound 6c, (4-methoxyphenyl)(naphthalen-1-yl)methanone O-2-(dimethylamino)ethyl oxime oxalate] |  | < 4.30 | < 4.30 | < 4.30 | 4.82 | < 4.30 | < 4.30 | < 4.30 | 
CCN(CC)CCO/N=C(/c1ccc(OC)cc1)c1cccc2ccccc12 [Compound 6d, (4-methoxyphenyl)(naphthalen-1-yl)methanone O-2-(diethylamino)ethyl oxime oxalate] |  | < 4.30 | < 4.30 | < 4.30 | 4.70 | < 4.30 | < 4.30 | < 4.30 | 
COc1ccc(/C(=N/OCCN(C(C)C)C(C)C)c2cccc3ccccc23)cc1 [Compound 6e, (4-methoxyphenyl)(naphthalen-1-yl)methanone O-2-(diisopropylamino)ethyl oxime oxalate] |  | < 4.30 | < 4.30 | < 4.30 | 4.64 | < 4.30 | < 4.30 | < 4.30 | 
COc1ccc(/C(=N/OCCCN(C)C)c2cccc3ccccc23)cc1 [Compound 6i, (4-methoxyphenyl)(naphthalen-1-yl)methanone O-3-(dimethylamino)propyl oxime oxalate] |  | < 4.30 | < 4.30 | < 4.30 | 4.69 | < 4.30 | < 4.30 | < 4.30 | 
CSc1ccc(/C(=N/OCCCN2CCCCC2)c2cccc3ccccc23)cc1 [Compound 7a, (4-(methylthio)phenyl)(naphthalen-1-yl)methanone O-3-(piperidin-1-yl)propyl oxime oxalate] |  | < 4.70 | < 4.30 | < 4.30 | 5.30 | 4.70 | 4.82 | 4.92 | 
CSc1ccc(/C(=N/OCCCCN2CCCCC2)c2cccc3ccccc23)cc1 [Compound 8a, (4-(methylthio)phenyl)(naphthalen-1-yl)methanone O-4-(piperidin-1-yl)butyl oxime] |  | 5.20 | 4.80 | 4.70 | 5.10 | 4.74 | 5.12 | 4.74 | 

From US9994515B2, “Aryl naphthyl methanone oxime(s) and process for preparation thereof” (Council of Scientific & Industrial Research, priority 2013, dated 2018)
